Reference: article PMC9506049, “Oxidation of p-[^125I]Iodobenzoic Acid and p-[^211At]Astatobenzoic Acid Derivatives and Evaluation In Vivo” (International Journal of Molecular Sciences, 2022)

Legend:
Solubility observations = type: physicochemical
[1] = Biodistribution of coinjected [125I]11 and [211At]13 in athymic mice; type: in vivo; settings: tail vein coinjection, 3 µCi each, n = 5, mean ± SD; for Concentration of radioactivity in neck: neck (thyroid)
[2] = Stability to isolation from radio-HPLC effluent, evaporation and dissolution in PBS (radio-HPLC reinjection); type: physicochemical; settings: evaporation of solvents, dissolution in PBS
Procedure: Similarly, radiohalogenation of para-tri-n-butylstannylbenzamidyl-dPEG4-carboxylic acid methyl ester 9 (Figure 3) using ChT as oxidant provided quantitative yields of [^125I]10 and [^211At]12 by radio-HPLC analyses (Figure 4A,B). The radiohalogenation reaction products were used without purification in the oxidation reactions to make the corresponding iodoxyaryl or astatoxyaryl compounds. Oxidation of [^125I]5 (Figure 2) provided [^125I]6 in 71% RCY. Oxidation of [^125I]10 (Figure 3) at 70 °C for 20 min provided a complex mixture of products, but isolation of the major peak (~6–8 min) provided [^125I]11 in 60% RCY (Figure 4C,E). […]
Two biodistribution studies were conducted. One biodistribution study evaluated the tissue distribution in athymic mice of isolated products from the reactions to produce [^125I]11 and [^211At]13. […]
HPLC analyses of non-radioactive compounds were performed using a system composed of a Hewlett-Packard quaternary 1050 gradient pump, a variable wavelength UW detector (254 nm) and an evaporative light scattering detector (ELSD 2000, Alltech, Deerfield, IL, USA). Radio-HPLC analysis of product mixtures from radiohalogenation reactions were analyzed using a system composed of two Beckman model 110 B pumps, a Beckman 420 controller, a Beckman model 153 UV detector (254 nm), and a Beckman model 170 radiation detector. […]

Which results are given for COC(=O)c1ccc(I(=O)=O)cc1 [Compound 6, Para-Iodoxybenzoic Acid Methyl Ester]?
melting point: 243 to 245 °C; Solubility in DMSO (Solubility observations; DMSO at room temperature): only partially soluble; Solubility (Solubility observations; all solvents tried): very insoluble in all solvents tried

Which “Concentration of radioactivity in blood” value ([1]; 1 h p.i.) does the source give for COC(=O)CCOCCOCCOCCOCCNC(=O)c1ccc([125I](=O)=O)cc1 [[125I]11] here?
The value was 0.22 ± 0.14 %ID/g.

And the “Concentration of radioactivity in intestine” value (from here on “Concentration … in intestine”) ([1]; 1 h p.i.)?
The value was 9.59 ± 8.73 %ID/g.

What about the “Concentration of radioactivity in kidney” value ([1]; 1 h p.i.) of the same compound?
The value was 0.84 ± 0.23 %ID/g.

What about the “Concentration of radioactivity in liver” value ([1]; 1 h p.i.) of the same compound?
The value was 1.73 ± 0.96 %ID/g.

And the “Concentration of radioactivity in lung” value ([1]; 1 h p.i.)?
Its value is 0.32 ± 0.10 %ID/g.

And the “Concentration of radioactivity in muscle” value ([1]; 1 h p.i.)?
The value was 0.12 ± 0.05 %ID/g.

What about the “Concentration of radioactivity in spleen” value ([1]; 1 h p.i.) of the same compound?
The value was 0.35 ± 0.28 %ID/g.

What about the “Concentration of radioactivity in stomach” value (shortened to “Concentration … in stomach”) ([1]; 1 h p.i.) of the same compound?
The value was 3.53 ± 1.09 %ID/g.

And the “Concentration of radioactivity in blood” value ([1]; 4 h p.i.)?
The value was 0.23 ± 0.18 %ID/g.

And the “Concentration … in intestine” value ([1]; 4 h p.i.)?
Its value is 3.39 ± 1.15 %ID/g.

And the “Concentration of radioactivity in kidney” value ([1]; 4 h p.i.)?
Its value is 0.40 ± 0.15 %ID/g.

And the “Concentration of radioactivity in liver” value ([1]; 4 h p.i.)?
The value was 0.64 ± 0.47 %ID/g.

And the “Concentration of radioactivity in lung” value ([1]; 4 h p.i.)?
The value was 0.14 ± 0.07 %ID/g.

And the “Concentration of radioactivity in muscle” value ([1]; 4 h p.i.)?
The value was 0.03 ± 0.01 %ID/g.

And the “Concentration of radioactivity in spleen” value ([1]; 4 h p.i.)?
The value was 0.08 ± 0.04 %ID/g.

What about the “Concentration … in stomach” value ([1]; 4 h p.i.) of the same compound?
Its value is 0.65 ± 0.16 %ID/g.

And the “Concentration of radioactivity in blood” value ([1]; 24 h p.i.)?
The value was 0.01 ± 0.00 %ID/g.

And the “Concentration … in intestine” value ([1]; 24 h p.i.)?
The value was 0.02 ± 0.01 %ID/g.

And the “Concentration of radioactivity in kidney” value ([1]; 24 h p.i.)?
Its value is 0.03 ± 0.01 %ID/g.

And the “Concentration of radioactivity in liver” value ([1]; 24 h p.i.)?
Its value is 0.01 ± 0.00 %ID/g.

What about the “Concentration of radioactivity in lung” value ([1]; 24 h p.i.) of the same compound?
Its value is 0.54 ± 0.85 %ID/g.

And the “Concentration of radioactivity in spleen” value ([1]; 24 h p.i.)?
The value was 0.01 ± 0.00 %ID/g.

And the “Concentration … in stomach” value ([1]; 24 h p.i.)?
Its value is 0.02 ± 0.01 %ID/g.

And the “Concentration of radioactivity in neck” value ([1]; 1 h p.i.)?
The value was 0.49 ± 0.09 %ID/g.

And the “Concentration of radioactivity in neck” value ([1]; 4 h p.i.)?
Its value is 0.35 ± 0.14 %ID/g.

And the “Concentration of radioactivity in neck” value ([1]; 24 h p.i.)?
The value was 0.02 ± 0.01 %ID/g.

And the “Stability under the conditions of isolation by radio-HPLC” value [2]?
The value was “did not change during that process”.

Which “Stability under the conditions of isolation by radio-HPLC” value [2] does the source give for COC(=O)CCOCCOCCOCCOCCNC(=O)c1ccc([211At](=O)=O)cc1 [[211At]13, p-[^211At]astatoxylbenzoyl-dPEG-methyl ester] here?
The value was “too unstable”.
